# Assay: DPPH radicals scavenging capacity assay
# Format: biochemical
# Method: DPPH radicals scavenging capacity assay: The ability of the plant extract to scavenge DPPH free radicals was assessed by using the method described by Takao et al. (Takao et al., 1994).
# The stock solution of the plant extract was prepared in methanol to achieve the concentration of 2000 μg/ml. Further, two-fold dilutions were made to obtain concentrations of 1000, 500, 250, 125, 62.5, 31.25, 15.62 μg/ml. Diluted solutions of extract (2 ml each) were mixed with 2 ml of DPPH methanol solution (80 μg/ml). After 30 min in darkness at room temperature, the absorbance was read in a spectrophotometer at 517 nm. The control samples consisted of 2 ml of methanol added to 2 ml of DPPH solution. Caffeoylquinic acid and ascorbic acid was used as a positive control. The experiment was performed in triplicate. Scavenging activity is expressed as the inhibition percentage calculated using the following equation: Scavenging activity (%)=100×[Acontrol−Asample)/Acontrol)], where Acontrol is the absorbance of the control and Asample is the absorbance of the extract.
# It was obtained from the graph of scavenging activity (%) versus concentration of samples. Low IC50 value indicates strong ability of the extract to act as DPPH scavenger.
# To evaluate the antioxidant activity of different fractions, an assay method based on the reduction of DPPH was performed.
Compound,"antioxidant activity (DPPH), conclusion in words (inferred from comparison of the 20% and 70% ethanol fractions)","DPPH antioxidant assay IC50 (concentration at which 50% of DPPH radicals were scavenged, DPPH methanol solution 80 μg/ml, 30 min in darkness, absorbance 517 nm, triplicate) [µg/mL]"
Cn1c(=O)c2c(ncn2C)n(C)c1=O [caffeine],did not contribute to antioxidant activity,–
"O=C1O[C@H]([C@@H](O)CO)C(O)=C1O [Ascorbic Acid, ascorbic acid]",–,59.4

# Reference: patent publication US20240075088A1, “BIOACTIVE EXTRACTION METHOD” (Performance Labs Pte. Ltd., priority 2022, published 2024)
